Values joined by “and” are separate entries in the source; they are usually repeats but may differ in a detail not shown here. Identical values can stand only once. Counter-ions that a name gives are not always drawn. Like-named read-outs stand apart in the source and are kept apart here.
Experiments:
[1] = cited from earlier work
[2] = Premix vs water for taste masking of sports nutrition active ingredients (Example M); settings: 1.5 g dose in Premix
Experimental: The supplements were suspended in a premix or water for reference. The active ingredients and their dosages were selected to simulate a sports nutrition drink prepared in a small blender (200 ml volume).
The panelists were asked to rate aversiveness/palatability and provide a brief description of off-flavors.

[3] = Physicochemical properties of mitragynine (pKa, Log P, aqueous solubility), literature
Excerpt: Mitragynine is an indole alkaloid comprising 66% of total alkaloids in extracts of Mitragyna speciosa leaves (Adkins, J. E., Boyer, E. W., McCurdy, C. R., 2011. Mitragyna speciosa, a psychoactive tree from Southeast Asia with opioid activity. Curr. Top. Med. Chem. 11, 1165-1175) (Ponglux, D., Wongseripipatana, S., Takayama, H., Kikuchi, M., Kurihara, M., Kitajima, M., Aimi, N., Sakai, S., 1994. A new indole alkaloid, 7 alpha-Hydroxy-7H-mitragynine, from Mitragyna speciosa in Thailand. Planta Med. 60, 580-581.). […] The compound is moderately stable at neutral pH (^˜3.5% degradation after 3 h) but degraded at pH 1.2 (by 26% degradation after 1-2 hr) (Manda, V. K., Avula, B., Ali, Z., Khan, I. A., Walker, L. A., Khan, S. I., 2014. Evaluation of in vitro absorption, distribution, metabolism, and excretion (ADME) properties of mitragynine, 7-hydroxymitragynine, and mitraphylline. Planta Med. 80, 568-576) (Ramanathan, S., Parthasarathy, S., Murugaiyah, V., Magosso, E., Tan, S. C., Mansor, S. M., 2015. Understanding the physicochemical properties of mitragynine, a principal alkaloid of Mitragyna speciosa, for preclinical evaluation. Molecules 20, 4915-4927). […]

[4] = cited from earlier work; remark: listed apart in the source
[5] = cited from earlier work; remark: listed apart in the source
[6] = rats; cited from earlier work
[7] = Phase separation of Kratom/Premix emulsion by visual observation (Example C)
[8] = 1% w/v, 0.1 mM quinine hydrochloride solution; cited from earlier work

CC[C@@H]1CN2CCc3c([nH]c4cccc(OC)c34)[C@H]2C[C@@H]1/C(=C\OC)C(=O)OC (stereo in doubt) [mitragynine hydrochloride]
absolute oral bioavailability of mitragynine ([1]; rats, oral in comparison to intravenous administration): 17.0%

NCC(=O)[O-].NCC(=O)[O-].[Mg+2] [Magnesium Glycinate]
pH in Premix [2]: flavors. pH 10.3 caused

CC[C@@H]1CN2CCc3c([nH]c4cccc(OC)c34)[C@@H]2C[C@@H]1/C(=C\OC)C(=O)OC [Mitragynine]
Biopharmaceutical Classification System (BCS) class [3]: Class II | pKa [4]: 8.1 | solubility in aqueous media ([4]; pH 4): 130 μM and 51.8 μg/ml | solubility in a saliva type fluid ([4]; pH 6.5): 64.6±1.2 μcg/mL | solubility in aqueous media ([4]; pH 7): 83 μM and 33.1 μg/ml | degradation ([5]; neutral pH, after 3 h): ~3.5% | degradation ([5]; pH 1.2, after 1-2 hr): 26% | % AUCbrain/AUCplasma [6]: 65.8±4.5% | bioavailability ([1]; oral administration in rats, calculated from other studies by Ya et al.): ~21%

Polysorbate 80
phase separation ([7]; Polysorbate 80 0.3% w/v final, added to Final Mix): separated | phase separation ([7]; Polysorbate 80 0.3% w/v final, added to liquid extract): separated | phase separation ([7]; Polysorbate 80 0.3% w/v final, added to premix): separated | phase separation ([7]; Polysorbate 80 0.5% w/v final, added to Final Mix): separated | phase separation ([7]; Polysorbate 80 0.5% w/v final, added to liquid extract): stable | phase separation ([7]; Polysorbate 80 0.5% w/v final, added to premix): separated | phase separation ([7]; Polysorbate 80 1% w/v final, added to Final Mix): separated | phase separation ([7]; Polysorbate 80 1% w/v final, added to liquid extract): stable | phase separation ([7]; Polysorbate 80 1% w/v final, added to premix): stable | phase separation ([7]; Polysorbate 80 1.5% w/v final, added to Final Mix): stable | phase separation ([7]; Polysorbate 80 1.5% w/v final, added to liquid extract): stable | phase separation ([7]; Polysorbate 80 1.5% w/v final, added to premix): stable

phosphatidic acid
bitterness-depressing effect due to adsorption [8]: 36.1% | bitterness-depressing effect due to suppression at the receptor site [8]: 45.6% | suppression of bitterness [8]: 81.7%

Reference: US20230364172A1, “MODULATION OF SOLUBILITY, PALATABILITY, ABSORPTION, AND BIOAVAILABILITY OF MITRAGYNA SPECIOSA-DERIVED COMPOUNDS FOR ORAL AND BUCCAL DELIVERY” (Syncotrance, LLC, priority 2022, published 2023)
